Source: patent US20260232666A1, “COMPOSITIONS AND METHODS FOR INHIBITION OF RAS” (TheRas, Inc., priority 2023, published 2026)

Key:
[1] = molecular target: T1, GDP-loaded KRAS4b (amino acids 1-169) G12C/C118S protein (Homo sapiens, UniProt P01116, C118S/G12C); assay: Covalent cysteine 12 modification by MALDI-TOF MS, GDP-loaded KRAS G12C; format: binding; conditions: 15 minutes reaction time point
T1 construct: KRAS4b (amino acids 1-169) G12C/C118S protein; made in house
Procedure, shortened: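 Percent modification comes from MALDI-TOF peak heights: the compound-adduct peak divided by the sum of the remaining-protein and adduct peaks. Reactions contained 1 μM protein and compound at a 1:2.5 ratio, in pH 7.3 HEPES buffer with NaCl and MgCl2, held 15 min at room temperature.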

[2] = molecular target: T2, Avi-KRAS G12C (1-169) GppNHp/RAF1 RBD-3×FLAG (52-151) (Homo sapiens, UniProt P01116, G12C); assay: Raf1 RBD-KRAS G12C-GppNHp disruption assay (protein:protein interaction HTRF); format: biochemical
T2 construct: Avi-KRAS G12C (1-169) GppNHp; Avi (N)
Procedure, shortened: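 HTRF measuring RAF1 RBD binding to GppNHp-loaded KRAS G12C (50 nM) in Tris pH 7.5, 100 mM NaCl, 5 mM MgCl2, 10% DMSO. Compound, KRAS, RBD and detection reagents each added sequentially with 1 h room-temperature incubations; 10-point titration; excitation 320 nm, emission 615 nm; activity as % of DMSO; IC50 derived.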

GDP-KRAS G12C percent of modification [1]	IC50 [2]	Compound
A (percent of modification ≥70%)	< 500 nM	C=CC(=O)N1CC[C@@H](N(C)c2nc(OC[C@@]34CCCN3C[C@H](F)C4)nc3cc(-c4ccc(F)c5sc(N)c(C#N)c45)c(C#N)cc23)[C@H]1CC [Compound 42]
A (percent of modification ≥70%)	< 500 nM	C=CC(=O)N1CC[C@@H](N(CC)c2nc(OC[C@@H]3C[C@@H](OC)CN3C)nc3c(F)c(-c4ccc(F)c5sc(N)c(C#N)c45)c(C(F)(F)F)cc23)[C@H]1C [Compound 45, 4-(4-(((2R,3R)-1-acryloyl-2-methylpyrrolidin-3-yl)(ethyl)amino)-8-fluoro-2-(((2S,4R)-4-methoxy-1-methylpyrrolidin-2-yl)methoxy)-6-(trifluoromethyl)quinazolin-7-yl)-2-amino-7-fluorobenzo[b]thiophene-3-carbonitrile]
A (percent of modification ≥70%)	500 to 5000 nM	C=CC(=O)N1CC[C@@H](N(CC)c2nc(OC[C@@]34CCCN3C[C@H](F)C4)nc3c(F)c(-c4ccc(F)c5sc(N)c(C#N)c45)ccc23)[C@@H]1CC [Compound 50]
C (10%≤percent of modification <50%)	< 500 nM	C=CC(=O)N1CC[C@@H](N(CC)c2nc(OC[C@@H]3C[C@@H](F)CN3C)nc3c(F)c(-c4ccc(F)c5sc(N)c(C#N)c45)c(C(F)(F)F)cc23)[C@H]1C [Compound 52]
A (percent of modification ≥70%)	< 500 nM	C=CC(=O)N1CC[C@@H](N(C)c2nc(OC[C@@H]3C[C@@H](F)CN3C)nc3c(F)c(-c4ccc(F)c5sc(N)c(C#N)c45)c(C(F)(F)F)cc23)[C@H]1C [Compound 55]
A (percent of modification ≥70%)	< 500 nM	C=CC(=O)N1CC[C@@H](N(CC)c2nc(OC[C@@]34CCCN3C[C@H](F)C4)nc3cc(-c4ccc(F)c5sc(N)c(C#N)c45)c(C#N)cc23)[C@@H]1C [Compound 56]
A (percent of modification ≥70%)	< 500 nM	C=CC(=O)N1CC[C@@H](N(CC)c2nc(OC[C@@]34CCCN3C[C@H](F)C4)nc3c(F)c(-c4ccc(F)c5sc(N)c(C#N)c45)ccc23)[C@@H]1C [Compound 57]
A (percent of modification ≥70%)	< 500 nM	C=CC(=O)N1CC[C@@H](N(CC)c2nc(OC[C@@H]3CCCN3C)nc3c(F)c(-c4ccc(F)c5sc(N)c(C#N)c45)c(Cl)cc23)[C@H]1C [Compound 58]
C (10%≤percent of modification <50%)	< 500 nM	C=CC(=O)N1CC[C@@H](N(CC)c2nc(OC[C@@H]3C[C@@H](F)CN3C)nc3c(F)c(-c4ccc(F)c5sc(N)c(C#N)c45)c(Cl)cc23)[C@H]1C [Compound 60]
A (percent of modification ≥70%)	< 500 nM	C=CC(=O)N1CC[C@@H](N(C)c2nc(OC[C@@H]3C[C@@H](OC)CN3C)nc3c(F)c(-c4ccc(F)c5sc(N)c(C#N)c45)c(Cl)cc23)[C@H]1C [Compound 63, 4-(4-(((2R,3R)-1-acryloyl-2-methylpyrrolidin-3-yl)(methyl)amino)-6-chloro-8-fluoro-2-(((2S,4R)-4-methoxy-1-methylpyrrolidin-2-yl)methoxy)quinazolin-7-yl)-2-amino-7-fluorobenzo[b]thiophene-3-carbonitrile]
A (percent of modification ≥70%)	< 500 nM	C=CC(=O)N1CC[C@@H](N(C)c2nc(OC[C@@H]3CCCN3C)nc3c(F)c(-c4ccc(F)c5sc(N)c(C#N)c45)c(C(F)(F)F)cc23)[C@H]1C [Compound 67]
B (50≤percent of modification <70%)	< 500 nM	C=CC(=O)N1CC[C@@H](N(CC)c2nc(OC[C@@H]3C[C@@H](OC)CN3C)nc3c(F)c(-c4ccc(F)c5sc(N)c(C#N)c45)c(Cl)cc23)[C@H]1C [Compound 73]
A (percent of modification ≥70%)	< 500 nM	C=CC(=O)N1CC[C@@H](N(CC)c2nc(OC[C@@H]3CC4(CC4)CN3C)nc3c(F)c(-c4ccc(F)c5sc(N)c(C#N)c45)c(Cl)cc23)[C@H]1C [Compound 75]
A (percent of modification ≥70%)	< 500 nM	C=CC(=O)N1CC[C@@H](N(CC)c2nc(OC[C@@]34CCCN3C[C@H](F)C4)nc3cc(-c4ccc(F)c5sc(N)c(C#N)c45)c(F)cc23)[C@H]1CC [Compound 76]
A (percent of modification ≥70%)	< 500 nM	C=CC(=O)N1CC[C@@H](N(CC)c2nc(OC[C@@]34CCCN3C[C@H](F)C4)nc3c(F)c(-c4ccc(F)c5sc(N)c(C#N)c45)c(Cl)cc23)[C@@H]1C [Compound 77]
A (percent of modification ≥70%)	< 500 nM	C=CC(=O)N1CC[C@@H](N(C)c2nc(OC[C@@]34CCCN3C[C@H](F)C4)nc3c(F)c(-c4nc(N)cc(C)c4C(F)(F)F)c(Cl)cc23)[C@H]1C [Compound 78, 1-[(2R,3R)-3-[[7-[6-amino-4-methyl-3-(trifluoromethyl)-2-pyridyl]-6-chloro-8-fluoro-2-[[(2R,8S)-2-fluoro-1,2,3,5,6,7-hexahydropyrrolizin-8-yl]methoxy]quinazolin-4-yl]-methyl-amino]-2-methyl-pyrrolidin-1-yl]prop-2-en-1-one]
B (50≤percent of modification <70%)	< 500 nM	C=CC(=O)N1CC[C@@H](N(C)c2nc(N3CC(N(C)C)C3)nc3c(F)c(-c4ccc(F)c5sc(N)c(C#N)c45)c(C(F)(F)F)cc23)[C@H]1C [Compound 80]
B (50≤percent of modification <70%)	< 500 nM	C=CC(=O)N1CC[C@@H](N(C)c2nc(OC[C@@H]3C[C@@H](F)CN3C)nc3c(F)c(-c4ccc(F)c5sc(N)c(C#N)c45)c(Cl)cc23)[C@@H]1C [Compound 82]
A (percent of modification ≥70%)	< 500 nM	C=CC(=O)N1CC[C@@H](N(C)c2nc(OC[C@@H]3CCCN3C)nc3c(F)c(-c4ccc(F)c5sc(N)c(C#N)c45)c(Cl)cc23)[C@@H]1C [Compound 83]
A (percent of modification ≥70%)	< 500 nM	C=CC(=O)N1CC[C@@H](N(CC)c2nc(OC[C@@]34CCCN3C[C@H](F)C4)nc3c(F)c(-c4ccc(F)c5sc(N)c(C#N)c45)c(C(F)(F)F)cc23)[C@@H]1C [Compound 86]
C (10%≤percent of modification <50%)	< 500 nM	C=CC(=O)N1CC[C@@H](N(C)c2nc(OCC3(CN4CCOCC4)CC3)nc3c(F)c(-c4ccc(F)c5sc(N)c(C#N)c45)c(C(F)(F)F)cc23)[C@H]1C [Compound 87]
B (50≤percent of modification <70%)	< 500 nM	C=CC(=O)N1CC[C@@H](N(C)c2nc(OC[C@@H]3CCCN3CC)nc3c(F)c(-c4ccc(F)c5sc(N)c(C#N)c45)c(C(F)(F)F)cc23)[C@H]1C [Compound 88]
B (50≤percent of modification <70%)	< 500 nM	C=CC(=O)N1CC[C@@H](N(C)c2nc(OC[C@@]34CCCN3C[C@H](F)C4)nc3c(F)c(-c4ccc(F)c5oc(N)c(C#N)c45)c(C(F)(F)F)cc23)[C@H]1C [Compound 90]
A (percent of modification ≥70%)	< 500 nM	C=CC(=O)N1CC[C@@H](N(C)c2nc(OC[C@@]34CCCN3C[C@H](F)C4)nc3c(F)c(-c4nc(N)cc(C)c4C(F)(F)F)c(C(F)(F)F)cc23)[C@@H]1C [Compound 91]
A (percent of modification ≥70%)	< 500 nM	C=CC(=O)N1CC[C@@H](N(C)c2nc(OC[C@@H]3CC4(CC4)CN3CC)nc3c(F)c(-c4ccc(F)c5sc(N)c(C#N)c45)c(Cl)cc23)[C@@H]1C [Compound 92]
A (percent of modification ≥70%)	< 500 nM	C=CC(=O)N1CC[C@@H](N(C)c2nc(OC[C@@H]3CC4(CC4)CN3CC)nc3c(F)c(-c4ccc(F)c5sc(N)c(C#N)c45)c(C(F)(F)F)cc23)[C@@H]1C [Compound 95]
A (percent of modification ≥70%)	< 500 nM	C=CC(=O)N1CC[C@@H](N(C)c2nc(OC[C@@H]3CC4(CC4)CN3CC)nc3c(F)c(-c4ccc(F)c5sc(N)c(C#N)c45)c(Cl)cc23)[C@H]1C [Compound 97]
D (percent of modification <10%)	500 to 5000 nM	C=CC(=O)N1CC[C@@H](N(C)c2nc(OC[C@@H]3C[C@@H](F)CN3CC)nc3c(F)c(-c4ccc(F)c5sc(N)c(C#N)c45)c(Cl)cc23)[C@H]1C [Compound 98]
A (percent of modification ≥70%)	< 500 nM	C=CC(=O)N1CC[C@@H](N(C)c2nc(OC[C@@H]3C[C@@H](OC)CN3CC)nc3c(F)c(-c4ccc(F)c5sc(N)c(C#N)c45)c(Cl)cc23)[C@H]1C [Compound 99]

Compound	GDP-KRAS G12C percent of modification [1]	IC50 [2]
C=CC(=O)N1CC2CC(C1)N2c1nc(OC[C@@]23CCCN2C[C@H](F)C3)nc2c(F)c(-c3ccc(F)c4sc(N)c(C#N)c34)c(C(F)(F)F)cc12 [Compound 46]	C (10%≤percent of modification <50%)	500 to 5000 nM
C=CC(=O)N1CC2CCC(C1)N2c1nc(OC[C@@]23CCCN2C[C@H](F)C3)nc2c(F)c(-c3ccc(F)c4sc(N)c(C#N)c34)c(C(F)(F)F)cc12 [Compound 49]	A (percent of modification ≥70%)	< 500 nM
